# pKd: −log10 of the molar value.
# Key:
# [1] = molecular target: binding of RAGE tail (ctRAGE) to DIAPH1 (Homo sapiens (Human), UniProt Q15109); assay: Primary screen (high-throughput): blocking of GFP RAGE tail binding to DIAPH1; settings: 12.5 μM; Table 2
# Experimental: […] Compounds that reduced binding of RAGE tail (ctRAGE) by at least 50% were then selected and subjected to 4-point dose response (10 uM, 1 uM, 0.1 uM and 0.01 uM).
# • Step 1. Add 50 μl anti-DIAPH1 (1:160 dilution in 0.1M NaHCO3 pH 9.6)/well. Incubate overnight at 4° C. Day 2 • Step 2. Use the plate washer to aspirate anti-DIAPH11 and wash plates 4× with PBS 100 μl per well per wash. • Step 3. Add 180 μl 3% BSA in 1×PBS. Incubate for 1.5 hrs at room temperature Step 4. Use the plate washer to aspirate the blocking solution and wash 5× with PBS 300 μl per well. • Step 5. Add 50 μl of DIAPH1 containing lysate (85 μg) and incubate at RT for 3 hours. • Step 6. Aspirate the lysate and wash the plate 5×(100 μl) on the plate washer. • Step 7. Add 25 μl PBS to the wells. • Step 8. Add 0.5 μL compound per well. • Step 9. Add 24.5 μL GFP RAGE tail (125 nM) into each well for 2 hrs at room temperature. • Step 10. Aspirate and wash 5× with PBS (100 μL) on the plate washer. • Step 11. Add 100 μl PBS in each well. • Step 12. Detection: Read on fluorescence plate reader excitation […] and 485 nm emission
# Compounds that blocked the binding of RAGE tail to DIAPH1 by 50% or more were subjected to 4 point dose response: 10 μM, 1 μM, 0.1 μM and 0.01 μM.
# [2] = molecular target: ctRAGE (Homo sapiens (Human), UniProt Q15109); assay: Kd determinations (Tables 1 and 2); type: binding; settings: Table 2
# Chain of ctRAGE (Q15109 23-404 limits assumed): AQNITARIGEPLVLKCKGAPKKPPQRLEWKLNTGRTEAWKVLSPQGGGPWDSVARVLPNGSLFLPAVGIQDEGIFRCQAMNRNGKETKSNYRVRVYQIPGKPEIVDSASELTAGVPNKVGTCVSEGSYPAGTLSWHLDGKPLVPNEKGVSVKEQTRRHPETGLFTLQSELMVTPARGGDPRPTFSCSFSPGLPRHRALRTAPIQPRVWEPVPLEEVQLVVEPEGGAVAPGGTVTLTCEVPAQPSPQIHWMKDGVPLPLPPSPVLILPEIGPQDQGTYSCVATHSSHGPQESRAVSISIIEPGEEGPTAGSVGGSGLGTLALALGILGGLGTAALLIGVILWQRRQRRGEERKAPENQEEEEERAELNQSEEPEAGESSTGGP
# Experimental: Binding affinities of small molecules for either CT-RAGE or FH1 are determined by performing fluorescence titrations to generate binding isotherms and standard SPR experiments.
# A number of representative quinoline compounds of this invention are or can be tested for their inhibitory activity.
# Chain of binding of RAGE tail (ctRAGE) to DIAPH1 (Q15109 364-404): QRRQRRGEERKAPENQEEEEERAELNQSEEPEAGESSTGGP
inhibition at 12.5 µM [1] [%],pKd [2],Structure (SMILES)
27,4.37,"CC(=O)Nc1ccc(-c2cc(C(=O)N3CCOCC3)c3cccc(Cl)c3n2)cc1 [Compound 101, N-(4-(8-Chloro-4-(morpholine-4-carbonyl)quinolin-2-yl)phenyl)acetamide]"
37,4.54,"CC(=O)Nc1ccc(-c2cc(C(=O)N3CCOCC3)c3cccc(Cl)c3n2)cn1 [Compound 102, N-(5-(8-Chloro-4-(morpholine-4-carbonyl)quinolin-2-yl)pyridin-2-yl)acetamide]"
38,4.74,"CC(=O)Nc1ccc(-c2cc(C(=O)N3CCOCC3)c3cccc(Cl)c3n2)nc1 [Compound 103, N-(6-(8-Chloro-4-(morpholine-4-carbonyl)quinolin-2-yl)pyridin-3-yl)acetamide]"
35,4.47,"CC(=O)Nc1ccc(-c2cc(C(=O)N3CCOCC3)c3cc(Cl)ccc3n2)nc1 [Compound 106, N-(6-(6-Chloro-4-(morpholine-4-carbonyl)quinolin-2-yl)pyridin-3-yl)acetamide]"
18,–,"CC(=O)Nc1ccc(-c2cc(CN3CCOCC3)c3cccc(Cl)c3n2)nc1 [Compound 111, N-(6-(8-Chloro-4-(morpholinomethyl)quinolin-2-yl)pyridin-3-yl)acetamide]"

# More lines, now with the values behind:
Structure (SMILES),inhibition at 12.5 µM [1] [%],pKd [2]
"CC(=O)Nc1ccc(-c2cc(C(=O)N3CCOCC3)c3cc(Cl)ccc3n2)cc1 [Compound 104, N-(4-(6-Chloro-4-(morpholine-4-carbonyl)quinolin-2-yl)phenyl)acetamide]",37,4.22
"CC(=O)Nc1ccc(-c2cc(C(=O)N3CCOCC3)c3cc(Cl)ccc3n2)cn1 [Compound 105, N-(5-(6-Chloro-4-(morpholine-4-carbonyl)quinolin-2-yl)pyridin-2-yl)acetamide]",32,4.35
"CC(=O)Nc1ccc(-c2cc(N3CCOCC3)c3ccccc3n2)cc1 [Compound 107, N-(4-(4-Morpholinoquinolin-2-yl)phenyl)acetamide]",31,4.36
"CC(=O)Nc1ccc(-c2cc(CN3CCOCC3)c3ccccc3n2)cc1 [Compound 108, N-(4-(4-(Morpholinomethyl)quinolin-2-yl)phenyl)acetamide]",44,4.96
"CC(=O)Nc1ccc(-c2cc(CN3CCOCC3)c3ccccc3n2)nc1 [Compound 109, N-(6-(4-(Morpholinomethyl)quinolin-2-yl)pyridin-3-yl)acetamide]",20,5.72
"CC(=O)Nc1ccc(-c2cc(CN3CCOCC3)c3cccc(Cl)c3n2)cc1 [Compound 110, N-(4-(8-Chloro-4-(morpholinomethyl)quinolin-2-yl)phenyl)acetamide]",20,–
"CC(=O)Nc1ccc(-c2cc(C(C)N3CCOCC3)c3ccccc3n2)cc1 (stereo not drawn) [Compound 112, N-(4-(4-(1-Morpholinoethyl)quinolin-2-yl)phenyl)acetamide]",27,–
